# Results as given in article PMC1764428, “Secretion and properties of a hybrid Kluyveromyces lactis-Aspergillus niger β-galactosidase” (Microbial Cell Factories, 2006).
# Experiments:
# [1] = system: T1, hybrid protein LAC4-LACA-KpnI; test: D-galactose release by coupled galactose dehydrogenase / NADH kit at […] nm, Lineweaver-Burk; format: biochemical, Kluyveromyces lactis;Aspergillus niger; settings: crude extract (60 μg protein); lactose 5-160 mM
# T1 construct: single-chain fusion: K. lactis LAC4 without its 297 C-terminal residues (fifth domain), replaced by 274 C-terminal residues of A. niger LACA (from pVK1.1) at KpnI site; expressed in K. lactis MW190-9B; crude extract
# [2] = system: T1, hybrid protein LAC4-LACA-KpnI; test: o-nitrophenol release, Lineweaver-Burk; format: biochemical, Kluyveromyces lactis;Aspergillus niger; settings: crude extract (30 μg protein); buffer Z with 1.6 mM MgSO4; ONPG 2-12 mM
Structure (SMILES),Km [1] [mM],Km [2] [mM]
OC[C@H]1O[C@@H](O[C@H]2[C@H](O)[C@@H](O)C(O)O[C@@H]2CO)[C@H](O)[C@@H](O)[C@H]1O (some centres unmarked) [lactose],8.7,
O=[N+]([O-])c1ccccc1O[C@@H]1O[C@H](CO)[C@H](O)[C@H](O)[C@H]1O [ONPG],,0.8
